{"source": "the supplement of paper PMC10307832", "assay_in_all_cases": "relative viability (nuclei count vs DMSO), 5 days (fraction); higher = more cells survive", "key": {"[1]": {"compound": "CC(C)N(CCCNC(=O)Nc1ccc(C(C)(C)C)cc1)C[C@H]1O[C@@H](n2ccc3c(N)ncnc32)[C@H](O)[C@@H]1O + Cc1cc(Nc2cc(N3CCN(C)CC3)nc(Sc3ccc(NC(=O)C4CC4)cc3)n2)n[nH]1 [Tozasertib] (partner 0.1 µM)", "procedure,_shortened": "(§1)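 Relative viability is defined as nuclei in treated wells over nuclei in vehicle wells. Duplicate plates were run and medians reported. Lung cancer cell lines in 1536-well plates were dosed by pin tool one day after seeding, with one drug or with a fixed anchor-drug dose plus five library-drug doses (not always all listed) in √10 steps, and nuclei were counted after 5 days.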"}, "Shikonin + Navitoclax": {"compound": "CC(C)=CC[C@@H](O)C1=CC(=O)c2c(O)ccc(O)c2C1=O [Shikonin] + CC1(C)CCC(c2ccc(Cl)cc2)=C(CN2CCN(c3ccc(C(=O)NS(=O)(=O)c4ccc(N[C@H](CCN5CCOCC5)CSc5ccccc5)c(S(=O)(=O)C(F)(F)F)c4)cc3)CC2)C1 [Navitoclax] (partner 0.5 µM)", "procedure,_shortened": "as §1"}, "[2]": {"compound": "CC(C)N(CCCNC(=O)Nc1ccc(C(C)(C)C)cc1)C[C@H]1O[C@@H](n2ccc3c(N)ncnc32)[C@H](O)[C@@H]1O + N=C(N)NC(=N)NCCc1ccccc1 [Phenformin] (partner 250 µM)", "procedure,_shortened": "as §1"}, "[3]": {"compound": "CC(C)N(CCCNC(=O)Nc1ccc(C(C)(C)C)cc1)C[C@H]1O[C@@H](n2ccc3c(N)ncnc32)[C@H](O)[C@@H]1O + Nc1ncn([C@H]2C[C@H](O)[C@@H](CO)O2)c(=O)n1 [Decitabine] (partner 2 µM)", "procedure,_shortened": "as §1"}}}
{"cell line": "UMC-11", "values": [{"measurement": "relative viability", "setting": "[1]; first compound 0.08 µM", "result": 0.185}, {"measurement": "relative viability", "setting": "[1]; first compound 0.253 µM", "result": 0.193}, {"measurement": "relative viability", "setting": "[1]; first compound 0.8 µM", "result": 0.231}, {"measurement": "relative viability", "setting": "[1]; first compound 2.53 µM", "result": 0.218}, {"measurement": "relative viability", "setting": "[1]; first compound 8 µM", "result": 0.175}, {"measurement": "relative viability", "setting": "Shikonin + Navitoclax; first compound 0.01 µM", "result": 0.282}, {"measurement": "relative viability", "setting": "Shikonin + Navitoclax; first compound 0.1 µM", "result": 0.324}, {"measurement": "relative viability", "setting": "Shikonin + Navitoclax; first compound 0.3162 µM", "result": 0.31}, {"measurement": "relative viability", "setting": "Shikonin + Navitoclax; first compound 1 µM", "result": 0.318}, {"measurement": "relative viability", "setting": "[2]; first compound 0.08 µM", "result": 0.321}, {"measurement": "relative viability", "setting": "[2]; first compound 0.253 µM", "result": 0.302}, {"measurement": "relative viability", "setting": "[2]; first compound 0.8 µM", "result": 0.296}, {"measurement": "relative viability", "setting": "[2]; first compound 2.53 µM", "result": 0.349}, {"measurement": "relative viability", "setting": "[2]; first compound 8 µM", "result": 0.322}, {"measurement": "relative viability", "setting": "[3]; first compound 0.08 µM", "result": 0.584}, {"measurement": "relative viability", "setting": "[3]; first compound 0.253 µM", "result": 0.621}, {"measurement": "relative viability", "setting": "[3]; first compound 0.8 µM", "result": 0.488}, {"measurement": "relative viability", "setting": "[3]; first compound 2.53 µM", "result": 0.534}, {"measurement": "relative viability", "setting": "[3]; first compound 8 µM", "result": 0.585}]}
